Measured values published in paper PMC3973950, “Synthesis of 5-arylidine amino-1,3,4-thiadiazol-2-[(N-substituted benzyol)]sulphonamides endowed with potent antioxidants and anticancer activity induces growth inhibition in HEK293, BT474 and NCI-H226 cells” (Medicinal Chemistry Research, 2013).

What was measured:
[1] = system: HEK 293, M468 and NCI-H226; test: In vitro cytotoxicity by MTT assay, summary over all cell lines; type: cell-based; details: on all cell lines
Experimental: The cancer cell line cultures of HEK 293 ([…]), BT474 (breast cancer cell line) and NCI-H226 (lung cancer) were obtained from Pasteur Institute of India, Coonoor, India, and were cultured in RPMI-1640 and 10 % heat-[…] New born calf serum with antibiotics [penicillin ([…]), streptomycin (100 μg/mL) and amphotericin B (25 μg/mL)]. The cells were maintained at 37 °C in a humidified atmosphere with 5 % CO2 and were subcultured twice a week.
The monolayer cell culture (100 μL) was trypsinized, and the cell count was adjusted to […] using medium containing 10 % new born calf serum. To each well of the 96-well microtitre plate, the diluted cell suspension (approximately 10,000 cells) (0.1 mL) was added and kept for 24 h in incubator at 37 °C in 5 % CO2 atmosphere for cell monolayer formation. After 24 h, when a partial monolayer was formed at the bottom of the well, the supernatant was flicked off, the monolayer was washed once, and different drugs, i.e. synthesized compounds (100 μL), were added to the cells in microtitre plates. The plates were then incubated at 37 °C for 3 days in 5 % CO2 atmosphere, and microscopic examination was carried out and observations recorded every 24 h. After 72 h, the sample solution in the wells was flicked off; MTT dye ([…]) was added to each well; plates were gently shaken and incubated for 4 h at 37 °C in 5 % CO2 incubator. The supernatant was removed and propanol (50 μL) was added; the plates were gently shaken to solubilize the formed formazan. The absorbance was measured using a microplate reader at a wavelength of 490 nm (Edmondson et al., [1988]; Prasad et al., [2005]; Chiruvella et al., [2008]; Chang et al., [2007]).

[2] = In vitro cytotoxicity by MTT assay, HEK 293; type: cell-based, human; details: human, HEK 293 cells, read-out: % cytotoxicity (100 − % cell survival) of HEK 293 cell line
How it was run: (§1)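 First, trypsinized cells went into wells at roughly 10,000 per well for 24 h. Next, medium was replaced with test compounds for 72 h at 37 °C. Finally, MTT was added for 4 h and the propanol-solubilized formazan read at 490 nm.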

[3] = system: NCI-H226 (lung cancer cell line); test: In vitro cytotoxicity by MTT assay, NCI-H226; type: cell-based; details: Homo sapiens, 72 h, read-out: % Cytotoxicity (100 − % cell survival) of NCI-H226 cell line; for cytotoxicity at 0.005 µM: NCI-H226, 0.005 μM; for cytotoxicity at 0.045 µM: NCI-H226, 0.045 μM; for cytotoxicity at 0.13 µM: NCI-H226, 0.13 μM; for cytotoxicity at 0.41 µM: NCI-H226, 0.41 μM; for cytotoxicity at 1.23 µM: NCI-H226, 1.23 μM; for cytotoxicity at 3.7 µM: NCI-H226, 3.7 μM; for cytotoxicity at 11.11 µM: NCI-H226, 11.11 μM; for cytotoxicity at 33.33 µM: NCI-H226, 33.33 μM; for cytotoxicity at 100 µM: NCI-H226, 100 μM
How it was run: as §1

[4] = In vitro cytotoxicity by MTT assay, NCI-H226; type: cell-based; details: human, NCI-H226 lung cancer cells, 0.015 μM, read-out: % Cytotoxicity (100 − % cell survival) of NCI-H226 cell line
How it was run: as §1

[5] = system: BT474 (breast cancer cell line); test: In vitro cytotoxicity by MTT assay, BT474; type: cell-based; details: Homo sapiens, 72 h, read-out: % cytotoxicity (100 − % cell survival) of BT474 cell line; for cytotoxicity at 0.005 µM: BT-474, 0.005 μM; for cytotoxicity at 0.015 µM: BT-474, 0.015 μM; for cytotoxicity at 0.045 µM: BT-474, 0.045 μM; for cytotoxicity at 0.13 µM: BT-474, 0.13 μM; for cytotoxicity at 0.41 µM: BT-474, 0.41 μM; for cytotoxicity at 1.23 µM: BT-474, 1.23 μM; for cytotoxicity at 3.7 µM: BT-474, 3.7 μM; for cytotoxicity at 11.11 µM: BT-474, 11.11 μM; for cytotoxicity at 33.33 µM: BT-474, 33.33 μM; for cytotoxicity at 100 µM: BT-474, 100 μM
How it was run: as §1

Row | Structure (SMILES) | cytotoxic activity compared with all synthesized compounds [1] | cytotoxicity at 72 h, 0.005 µM [2] [%] | cytotoxicity at 72 h, 0.015 µM [2] [%] | cytotoxicity at 72 h, 0.045 µM [2] [%] | cytotoxicity at 72 h, 0.13 µM [2] [%] | cytotoxicity at 72 h, 0.41 µM [2] [%] | cytotoxicity at 72 h, 1.23 µM [2] [%] | cytotoxicity at 72 h, 3.7 µM [2] [%] | cytotoxicity at 72 h, 11.11 µM [2] [%] | cytotoxicity at 72 h, 33.33 µM [2] [%] | cytotoxicity at 72 h, 100 µM [2] [%] | cytotoxicity at 0.005 µM [3] [%] | cytotoxicity at 0.045 µM [3] [%] | cytotoxicity at 0.13 µM [3] [%] | cytotoxicity at 0.41 µM [3] [%] | cytotoxicity at 1.23 µM [3] [%] | cytotoxicity at 3.7 µM [3] [%] | cytotoxicity at 11.11 µM [3] [%] | cytotoxicity at 33.33 µM [3] [%] | cytotoxicity at 100 µM [3] [%] | further results
1 | Nc1nnc(S(=O)(=O)NC(=O)c2ccccc2)s1 [Compound 4a, 5-amino-1,3,4-thiadiazol-2-[N-(benzoyl)]sulphonamide] | less activity | 25.6 | 25.8 | 26.6 | 26.9 | 28.2 | 28.5 | 28.9 | 29.5 | 31.7 | 33 | 22.4 | 24.2 | 24.9 | 25.5 | 26.1 | 26.6 | 27.1 | 27.5 | 27.9 | cytotoxicity at 72 h, 0.015 µM [4]: 23.1%; cytotoxicity at 0.005 µM [5]: 20.1%; cytotoxicity at 0.015 µM [5]: 22.6%; cytotoxicity at 0.045 µM [5]: 23.1%; cytotoxicity at 0.13 µM [5]: 24.6%; cytotoxicity at 0.41 µM [5]: 25.4%; cytotoxicity at 1.23 µM [5]: 25.9%; cytotoxicity at 3.7 µM [5]: 26.3%; cytotoxicity at 11.11 µM [5]: 27.4%; cytotoxicity at 33.33 µM [5]: 28.1%; cytotoxicity at 100 µM [5]: 28.7%
2 | CC(=O)Nc1ccc(S(=O)(=O)Nc2nnc(S(=O)(=O)NC(=O)c3ccccc3N)s2)cc1 [Compound 6b] | moderate activity | 35.6 | 36.2 | 37.9 | 39.9 | 42.6 | 43.1 | 44 | 45.3 | 46.8 | 48.2 | 36.3 | 38.4 | 39.1 | 42 | 42.7 | 43.4 | 45.3 | 47.1 | 49.1 | cytotoxicity at 72 h, 0.015 µM [4]: 37.3%; cytotoxicity at 0.005 µM [5]: 24.3%; cytotoxicity at 0.015 µM [5]: 25.1%; cytotoxicity at 0.045 µM [5]: 25.8%; cytotoxicity at 0.13 µM [5]: 26.2%; cytotoxicity at 0.41 µM [5]: 27.1%; cytotoxicity at 1.23 µM [5]: 28.1%; cytotoxicity at 3.7 µM [5]: 28.7%; cytotoxicity at 11.11 µM [5]: 29.3%; cytotoxicity at 33.33 µM [5]: 30.3%; cytotoxicity at 100 µM [5]: 32%
3 | CC(=O)Nc1ccc(S(=O)(=O)Nc2nnc(S(=O)(=O)NC(=O)c3ccc([N+](=O)[O-])cc3)s2)cc1 [Compound 6e] | moderate activity | 39.1 | 42 | 42.7 | 43.4 | 45.3 | 47.1 | 49.1 | 49.9 | 51.2 | 55 | 38.8 | 42.4 | 45.4 | 47.6 | 48.6 | 49.2 | 50.8 | 51.1 | 54.5 | cytotoxicity at 72 h, 0.015 µM [4]: 41.2%; cytotoxicity at 0.005 µM [5]: 27.1%; cytotoxicity at 0.015 µM [5]: 28%; cytotoxicity at 0.045 µM [5]: 28.1%; cytotoxicity at 0.13 µM [5]: 28.7%; cytotoxicity at 0.41 µM [5]: 29.4%; cytotoxicity at 1.23 µM [5]: 30.1%; cytotoxicity at 3.7 µM [5]: 31.1%; cytotoxicity at 11.11 µM [5]: 32.5%; cytotoxicity at 33.33 µM [5]: 34.8%; cytotoxicity at 100 µM [5]: 37.3%
